This note sets out measurements from US8557816B2, “Aurora kinase modulators and method of use” (Amgen Inc., priority 2007, dated 2013).

A value given as a limit tells only on which side of the number the result lay.

The target of test [1] is T1, AuroraA-TPX2 (Homo sapiens, UniProt O14965).
T1 construct: 20 μL of AuroraA-TPX2 KD GST for a final volume of about 41 μL; GST
T1 sequence (O14965 133-383 limits assumed): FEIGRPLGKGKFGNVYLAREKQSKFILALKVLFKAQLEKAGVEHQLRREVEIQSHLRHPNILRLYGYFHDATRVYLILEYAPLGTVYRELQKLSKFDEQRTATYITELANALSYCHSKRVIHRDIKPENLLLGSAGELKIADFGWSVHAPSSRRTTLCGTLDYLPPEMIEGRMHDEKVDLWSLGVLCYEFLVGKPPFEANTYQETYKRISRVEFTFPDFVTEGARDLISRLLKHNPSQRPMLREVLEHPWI
T1 sequence (Q9ULW0 1-43 partner limits assumed): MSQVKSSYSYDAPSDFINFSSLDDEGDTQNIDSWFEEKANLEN
Nature of the test: AuroraA-TPX2 Homogeneous Time Resolved Fluorescent (HTRF) kinase assay. Format: biochemical. Particulars: average; read-out: AurA_IC50_IP (uM Avg). The gist of the method:
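HTRF read-out (Eu 615 nm to APC 655 nm) of phosphorylated biotin-PLK, detected with 0.02 nM europium anti-phosphoPLK antibody and 0.0005 mg/mL SA-APC after overnight equilibration.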
In general terms: In TR-FRET formats the signal depends on donor and acceptor labels being close together.

Test [2] has as its target T2, AuroraB (Homo sapiens, UniProt Q96GD4).
T2 construct: 20 μL of AuroraB FL H is for a final volume of 41 μL; His
Nature of the test: AuroraB Homogeneous Time Resolved Fluorescent (HTRF) kinase assay. Format: biochemical. The conditions noted are these: average; read-out: AurB_IC50_IP (uM Avg). Put shortly: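 Read-out is time-resolved FRET between europium anti-phospho-H3 antibody and streptavidin-APC, added in EDTA buffer to stop the reaction and equilibrated about 60 min (ex 320, em 615 and 655 nm). Preceding reaction: ~90 min, full-length enzyme, ATP, 0.1 μM biotin-Histone H3 substrate, Mg/Mn HEPES buffer pH 7.5.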

T2 sequence (Q96GD4 whole entry): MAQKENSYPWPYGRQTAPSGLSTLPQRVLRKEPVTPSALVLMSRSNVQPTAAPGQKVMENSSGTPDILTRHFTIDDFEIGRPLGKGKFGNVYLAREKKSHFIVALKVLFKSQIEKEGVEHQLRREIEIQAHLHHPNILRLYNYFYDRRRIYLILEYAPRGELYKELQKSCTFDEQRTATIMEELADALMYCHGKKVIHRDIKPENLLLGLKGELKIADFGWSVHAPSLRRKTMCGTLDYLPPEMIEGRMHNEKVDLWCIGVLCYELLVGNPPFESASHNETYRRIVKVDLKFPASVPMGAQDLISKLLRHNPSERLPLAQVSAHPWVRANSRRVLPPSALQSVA

In the case of `CCc1cc(N2CC[C@H]3CCCC[C@@H]3C2)nnc1Nc1ccc(Oc2ccnc3cc(OC)cnc23)cc1` [compound 300, 4-ethyl-N-(4-((7-(methyloxy)-1,5-naphthyridin-4-yl)oxy)phenyl)-6-((4aR,8aS)-octahydro-2(1H)-isoquinolinyl)-3-pyridazinamine], the IC50 amounted to 0.112 µM in test [1] and 0.067 µM in test [2].

For the molecule `Cc1ccc(-c2nnc(Nc3ccc(Sc4ccnc5cc(C#N)sc45)cc3)c3ccccc23)cn1` [compound 461], the IC50 in test [1] is 0.044 µM; in test [2], 0.009 µM.

Consider `C[Si](C)(C)c1cc2nccc(Sc3ccc(Nc4nnc(Cl)c5ccccc45)cc3)c2o1` [compound 484], for which the values for the IC50 in test [1] and in test [2] were above 125 µM and 0.107 µM, respectively.

With `Clc1ccc(-c2nnc(Nc3ccc(Sc4ccnc5cc(C6CC6)oc45)cc3)c3ccccc23)cc1` [compound 486], the results for the IC50 in test [1] and in test [2] were 0.141 µM and 0.018 µM, respectively.

Regarding `c1ccc(-c2nnc(Nc3ccc(Sc4ccnc5cc[nH]c45)cc3)c3ccccc23)cc1` [compound 462, 4-phenyl-N-(4-(1H-pyrrolo[3,2-b]pyridin-7-ylthio)phenyl)-1-phthalazinamine], the values for the IC50 in test [1] and in test [2] were 0.557 µM and 0.01 µM, respectively.

Turning to `COc1cnc2c(Oc3ccc(Nc4nnc(-c5ccc(Cl)c(Cl)c5)c5ccccc45)cc3)ccnc2c1` [compound 201, 4-(3,4-dichlorophenyl)-N-(4-((7-(methyloxy)-1,5-naphthyridin-4-yl)oxy)phenyl)-1-phthalazinamine], the IC50 in test [1] is 0.035 µM; in test [2], 0.006 µM.

For the molecule `Oc1cc(-c2nnc(Nc3ccc(Sc4ccnc5cccnc45)cc3)c3ccccc23)ccc1Cl` [compound 452], the IC50 turned out to be 0.058 µM in test [1] and 0.003 µM in test [2].

As for `COc1cnc2c(Oc3ccc(Nc4nnc(-c5cc(F)ccc5OC)c5ccccc45)cc3)ccnc2c1` [compound 80, 4-(5-fluoro-2-(methyloxy)phenyl)-N-(4-((7-(methyloxy)-1,5-naphthyridin-4-yl)oxy)phenyl)-1-phthalazinamine], the results for the IC50 in test [1] and in test [2] were 0.414 µM and 0.041 µM, respectively.

Regarding `COc1cnc2c(Sc3ccc(Nc4nnc(-c5ccc6c(c5)OCO6)c5ccccc45)cc3F)ccnc2c1` [compound 522], the IC50 was 0.009 µM in test [1] and 0.022 µM in test [2].

`Clc1ccc(-c2nnc(Nc3ccc(Sc4ccnc5ccsc45)cc3)c3ccccc23)cc1` [compound 332, 4-(4-chlorophenyl)-N-(4-(thieno[3,2-b]pyridin-7-ylthio)phenyl)-1-phthalazinamine]: the IC50 in test [1] turned out to be 0.016 µM; in test [2], 0.003 µM.

Take `N#Cc1cc2nccc(Sc3ccc(Nc4nnc(-c5ccccc5)c5ccccc45)cc3)c2s1` [compound 458]: the IC50 in test [1] was above 25 µM; in test [2], 0.097 µM.

For `COc1cnc2c(Oc3ccc(Nc4nnc(-c5ccc(Cl)cc5C)c5ccccc45)cc3)ccnc2c1` [compound 233, 4-(4-chloro-2-methylphenyl)-N-(4-((7-(methyloxy)-1,5-naphthyridin-4-yl)oxy)phenyl)-1-phthalazinamine], the results for the IC50 in test [1] and in test [2] were 0.845 µM and 0.021 µM, respectively.

As to `COc1ccc2ncnc(Oc3ccc(Nc4nnc(-c5ccc(Cl)cc5)c5ccccc45)cc3)c2c1` [compound 564], the results for the IC50 in test [1] and in test [2] were above 25 µM and 0.129 µM, respectively.

As to `Clc1ccc(-c2nnc(Nc3ccc(Oc4ncnc5[nH]cnc45)cc3)c3ccccc23)cc1` [compound 266, 4-(4-chlorophenyl)-N-(4-(9H-purin-6-yloxy)phenyl)-1-phthalazinamine], the IC50 in test [1] worked out at 0.679 µM; in test [2] it was 0.045 µM.

For the molecule `COc1cc2nccc(Sc3ccc(Nc4nnc(-c5cc(C)cs5)c5ccccc45)cc3)c2cn1` [compound 494], the results for the IC50 in test [1] and in test [2] were 0.026 µM and 0.017 µM, respectively.

In the case of `COc1cnc2c(Sc3ccc(Nc4nnc(-c5ccc(C)c(N)c5)c5ccccc45)cc3)ccnc2c1` [compound 477], the values for the IC50 in test [1] and in test [2] were 0.009 µM and 0.026 µM, respectively.

Regarding `COc1ccc2nccc(Sc3ccc(Nc4nnc(N5CCCCC5)c5ccccc45)cc3)c2n1` [compound 548], the IC50 in test [1] stood at 0.27 µM; in test [2] it was 0.031 µM.

Take `COc1cnc2c(Oc3ccc(Nc4nnc(-c5ccc(C)c(OC)c5)c5ccccc45)cc3)ccnc2c1` [compound 525]: the IC50 in test [1] came to 0.013 µM; in test [2], 0.028 µM.

`COc1cnc2c(Oc3ccc(Nc4nnc(-c5cc6ccccc6s5)c5ccccc45)cc3)ccnc2c1` [compound 171, 4-(1-benzothien-2-yl)-N-(4-((7-(methyloxy)-1,5-naphthyridin-4-yl)oxy)phenyl)-1-phthalazinamine]: the IC50 was 0.013 µM in test [1] and 0.015 µM in test [2].

In the case of `COc1cnc2c(Oc3ccc(Nc4nnc(-c5cccc6[nH]ccc56)c5ccccc45)cc3)ccnc2c1` [compound 183, 4-(1H-indol-4-yl)-N-(4-((7-(methyloxy)-1,5-naphthyridin-4-yl)oxy)phenyl)-1-phthalazinamine], the results for the IC50 in test [1] and in test [2] were 0.033 µM and 0.003 µM, respectively.

Consider `COc1cnc2c(Oc3ccc(Nc4nnc(-c5ccc(C)cc5)c5ccccc45)cc3)ccnc2c1` [compound 81, N-(4-((7-(methyloxy)-1,5-naphthyridin-4-yl)oxy)phenyl)-4-(4-methylphenyl)-1-phthalazinamine], for which the figures for the IC50 in test [1] and in test [2] were 0.012 µM and 0.006 µM, respectively.

For `c1ccc(-c2nnc(Nc3ccc(Sc4ccnc5cccnc45)cc3)c3ccccc23)cc1` [compound 285, N-(4-(1,5-naphthyridin-4-ylthio)phenyl)-4-phenyl-1-phthalazinamine], the values for the IC50 in test [1] and in test [2] were 0.029 µM and 0.002 µM, respectively.

In the case of `N#Cc1cc2nccc(Sc3ccc(Nc4nnc(-c5ccc(Cl)cc5)c5ccccc45)cc3)c2s1` [compound 351, 7-(4-(4-(4-chlorophenyl)phthalazin-1-ylamino)phenylthio)thieno[3,2-b]pyridine-2-carbonitrile], the IC50 amounted to 0.008 µM in test [1] and 0.003 µM in test [2].

In the case of `CCc1cc(-c2ccc(C)s2)nnc1Nc1ccc(Oc2ccnc3cc(OC)cnc23)cc1` [compound 205, 4-ethyl-N-(4-((7-(methyloxy)-1,5-naphthyridin-4-yl)oxy)phenyl)-6-(5-methyl-2-thienyl)-3-pyridazinamine], the IC50 in test [1] was 0.06 µM; in test [2] it was 0.004 µM.

For the molecule `COc1cnc2c(Oc3ccc(Nc4nnc(-c5cc(C)cs5)c5ccccc45)cc3OC)ccnc2c1` [compound 567], the IC50 turned out to be 0.092 µM in test [1] and 0.041 µM in test [2].

Turning to `Cc1csc(-c2nnc(Nc3ccc(Sc4ccnc5ccncc45)cc3)c3ccccc23)c1` [compound 428], the results for the IC50 in test [1] and in test [2] were 0.032 µM and 0.013 µM, respectively.

`Cc1csc(-c2nnc(Nc3ccc(Sc4ccnc5ccc(OC(F)(F)F)cc45)cc3)c3ccccc23)c1` [compound 572]: the IC50 in test [1] and in test [2] was above 25 µM in each case.

For `CCc1cc(-c2ccc(C)cc2)nnc1Nc1ccc(Nc2ccnc3cc(C#N)ccc23)cc1` [compound 596], the IC50 in test [1] was 0.16 µM; in test [2], 0.058 µM.

Consider `Cc1ccsc1-c1nnc(Nc2ccc(Oc3ccnc4cc(C#N)ccc34)cc2)c2ccccc12` [compound 184, 4-((4-((4-(3-methyl-2-thienyl)-1-phthalazinyl)amino)phenyl)oxy)-7-quinolinecarbonitrile], for which the IC50 in test [1] came out at 0.201 µM; in test [2], 0.003 µM.
